“Also recorded” adds a separate entry of the source.
What was measured:
[1] = tested on: Type II collagen-induced arthritis (CIA); assay: Collagen-induced arthritis (CIA) mouse model, clinical assessment; format: in vivo, DBA/1 LacJ mice; settings: vs saline control mice; for number of involved (arthritic) paws: Formula III 40 mg/kg i.p. ×3/week or gavaged ×5/week, Enbrel 100 μg i.p. ×3/week, prednisolone 10 mg/kg gavaged ×5/week
Description: Type II collagen-induced arthritis (CIA) in mice is an accepted experimental model of arthritis with a number of pathological, immunological and genetic features in common with rheumatoid arthritis. This disease is induced by immunization of susceptible strains of mice with type II collagen, the major component of joint cartilage. A progressive, inflammatory arthritis develops in the majority of immunized animals, which is characterized clinically by erythema and edema, with affected paw width increases of typically 100%. A clinical scoring index has been developed to assess disease progression to joint distortion and spondylitis. […] Immunological laboratory findings include high antibody levels to type II collagen and hypergammaglobulinemia.
(§1) This study was designed to evaluate the anti-inflammatory and anti-arthritic activity of compound of Formula III using the CIA model by observing changes in immune parameters due to treatment. The animals were administered oral corticosteroid, Enbrel, an injectable TNF inhibitor, and compound of Formula III using both oral and parenteral delivery. Seventy-five DBA/1 LacJ mice 8-10 weeks of age were obtained from Jackson Labs and quarantined in our facility for 10 days prior to experimentation. All mice weighed >16 grams at the start of the experiment. Mice were pre-bled by retro-orbital puncture, and injected with 100 μg Bovine type II collagen in Freund's complete adjuvant (FCA) intradermally at the base of the tail. Mice were monitored by daily examination for the onset of disease. Mice that developed CIA between 20 days post immunization and 42 days post immunization were assigned to one of five treatment groups on a rotational basis (to normalize onset date), and ten mice were assigned to each group. For administration, compound of Formula III was solubilized in sterile saline. To facilitate drugs delivered by oral administration, carboxymethylcellulose was added to a final concentration of 4% in all gavage solutions. Compounds were administered according to the following schedule: • Group 1. 100 μl sterile saline vehicle injected intraperitoneally (i.p.) ×3/week. • Group 2. 100 μl sterile saline containing compound of Formula III at 40 mg/kg injected i.p. ×3/week. • Group 3. 100 μl sterile saline containing 100 μg Enbrel injected i.p. ×3/week. • Group 4. 100 μl sterile saline containing compound of Formula III at 40 mg/kg gavaged ×5/week. • Group 5. 100 μl sterile saline containing prednisolone 10 mg/kg gavaged ×5/week.
Mice were weighed weekly, and overall health status noted. Arthritic animals were clinically assessed by visual inspection five times per week, and paw swelling quantified by caliper measurements made three times per week, until seven weeks after the initial onset of arthritis. All animals were assessed individually from the time of disease onset, and the appropriate findings were entered into clinical report forms.

[2] = tested on: total serum Ig; assay: Total serum immunoglobulin levels in CIA mice (ELISA); format: in vivo, DBA/1 LacJ mice; settings: Prednisolone 10 mg/kg gavaged ×5/week; Formula III 40 mg/kg i.p. ×3/week
Experimental: This study was designed to evaluate the anti-inflammatory and anti-arthritic activity of compound of Formula III using the CIA model by observing changes in immune parameters due to treatment. The animals were administered oral corticosteroid, Enbrel, an injectable TNF inhibitor, and compound of Formula III using both oral and parenteral delivery. Seventy-five DBA/1 LacJ mice 8-10 weeks of age were obtained from Jackson Labs and quarantined in our facility for 10 days prior to experimentation. All mice weighed >16 grams at the start of the experiment. Mice were pre-bled by retro-orbital puncture, and injected with 100 μg Bovine type II collagen in Freund's complete adjuvant (FCA) intradermally at the base of the tail. Mice were monitored by daily examination for the onset of disease. Mice that developed CIA between 20 days post immunization and 42 days post immunization were assigned to one of five treatment groups on a rotational basis (to normalize onset date), and ten mice were assigned to each group. For administration, compound of Formula III was solubilized in sterile saline. […]
Serum Ig levels was assessed using an ELISA assay. […] The plate was read at 405 nm using a Photospectrometer (Molecular Devices), and the data analyzed using the SOFTmax analytical software package. […]

[3] = tested on: anti-type II collagen antibody; format: in vivo, DBA/1 LacJ mice; settings: after seven weeks of treatment, Prednisolone 10 mg/kg gavaged ×5/week, Formula III 40 mg/kg i.p. ×3/week; for terminal anti-CII antibody levels compared with control mice: p<0.01
Experimental: as §1
All mice were pre-bled prior to the start of the trial, subsequently at onset of arthritis and at the completion of the trial. Sera were separated and stored at −80° C. ELISA assays were performed to determine anti-type II collagen antibody levels and total immunoglobulin levels.
ELISA plates (Nunc-Immuno plates, Denmark) were coated with 100 μl of coating buffer (0.4M phosphate buffer ph7.6) containing 5 μg of type II collagen, at 4° C. overnight. Plates were washed 3 times with PBS containing 0.05% Tween 20 (Sigma, St. Louis, Mo.) and non specific binding was blocked by PBS containing 5% non fat milk overnight at 4° C. Mouse sera diluted to 1/100 in 5% milk/PBS was added to each well and incubated overnight at 4° C. […] The resulting optical density was measured at 405 nm by using a UV max spectrophotometer (Molecular Devices, CA). […] Antibody binding was expressed as OD405 units-blank.

[4] = tested on: lymph node cells; assay: Lymph node cell mitogen and antigen proliferative responses (MTT) from treated CIA mice; format: in vivo, DBA/1 LacJ mice; settings: mice treated 40 mg/kg i.p. ×3/week; p<0.05
Experimental: This study was designed to evaluate the anti-inflammatory and anti-arthritic activity of compound of Formula III using the CIA model by observing changes in immune parameters due to treatment. The animals were administered oral corticosteroid, Enbrel, an injectable TNF inhibitor, and compound of Formula III using both oral and parenteral delivery. Seventy-five DBA/1 LacJ mice 8-10 weeks of age were obtained from Jackson Labs and quarantined in our facility for 10 days prior to experimentation. All mice weighed >16 grams at the start of the experiment. […] Mice were monitored by daily examination for the onset of disease. […]
Spleen and lymph nodes were removed at sacrifice, and mitogen responses to Con A and LPS, and antigen proliferative responses to type II collagen were determined using standard techniques. […] After incubation at 37° C. overnight, the optical density at 590 nm was read using a microplate photospectrometer (Molecular Devices, CA). The mean and OD values, which provide a measure of cell proliferation, were recorded for each cell sample with respect to antigen stimulation. Antigen specific responses were expressed as (OD590 [Stimulated Culture]−OD590 [Spontaneous proliferation culture])/OD590 [Spontaneous proliferation culture].

[5] = tested on: plasma lipoprotein cholesterol and triglyceride; assay: Antilipidemic activity in hamsters fed hypercholesterolemic diet; format: in vivo, Syrian Golden hamsters; settings: day 8 of treatment
Description: Eighty-five male Syrian Golden hamsters (F1B strain, BioBreeders, Fitchburg Mass.) approximately 8-10 weeks of age were acclimated to individual hanging polystyrene cages with bedding for 1 week and then fed a semipurified hypercholesterolemic diet (HCD) containing 25% casein, 20% hydrogenated coconut oil, 2% safflower oil, and 0.15% cholesterol by weight for 2 weeks prior to initiation of the experimental treatments (Table 1). Hamsters were then bled (Week 0) following an overnight fast (16 hr) to determine plasma concentrations of total cholesterol, HDL-C, nonHDL-C, and triglycerides and divided into 17 groups (n=5/group) with similar starting plasma HDL-C levels, and administered either compound of Formula II or vehicle once per day for 14 days.
Plasma total cholesterol, HCL-C, nonHDL-C, and triglycerides were then measured at day 8 (prior to gavage that day) and at day 15 (24 hr after last gavage) following and overnight fast (16 hr). Hamsters were maintained in accordance with the guidelines of the Animal Care Committee at the University of Massachusetts-Lowell Research Foundation and the guidelines prepared by the Committee on the Care and Use of Laboratory Animals of the Institute of Laboratory Animal Resources, National Research Council (DHEW publication no 85-23, revised 1985). Hamsters were housed in an environmentally controlled room with an alternating 12-h light/dark cycle and given ad libitum access to food and water except when food is withheld for the experimental protocols.
Blood was collected via the retro-orbital sinus into heparinized tubes from hamsters fasted for 16 h at days 0, 8, and 15. Plasma was harvested after centrifugation at 1500-×g at room temperature for 10 min and plasma total cholesterol and triglyceride concentrations were measured enzymatically. Plasma LDL cholesterol (combination of very low-density, intermediate, and low-density lipoprotein-cholesterol) was precipitated with phosphotungstate reagent and HDL cholesterol was measured in the supernatant. The concentration of LDL cholesterol was calculated as the difference between plasma TC and HDL cholesterol. The accuracy and precision of the procedures used for the measurements of plasma TC and HDL cholesterol were maintained by participation in the Lipid Standardization Program of the Centers for Disease Control and the National Heart, Blood and Lung Institute (Atlanta, Ga.). All reagents used were supplied by Sigma-Aldrich (St. Louis, Mo.). All assays were performed using a Cobas Mira Plus® (Cobas Mira Plus® is a registered trademark of Roche Diagnostic Systems, Inc.) clinical chemistry autoanalyzer using 10 μl of plasma for each sample (Roche Pharmaceuticals, Basel, Switzerland).

[6] = gavaged ×5/week (Formula III 40 mg/kg; prednisolone 10 mg/kg)
[7] = injected i.p. ×3/week (Formula III 40 mg/kg; Enbrel 100 μg)

| Molecule | number of involved (arthritic) paws [1] | arthritis score [1, 6] | arthritis score ([1]; gavaged ×5/week (Formula III 40 mg/kg; prednisolone 10 mg/kg), listed as prednisolone) | reduction of total serum Ig levels at the terminal bleed vs control mice [2] | terminal anti-CII antibody levels compared with titers at disease onset [3] | terminal anti-CII antibody levels compared with control mice [3] | arthritis score [1, 7] | lymph node cell response to LPS [4] | plasma HDL-C change compared to vehicle control ([5]; 0.9 mg/kg once per day) | plasma nonHDL-C change compared to vehicle control ([5]; 0.9 mg/kg once per day) | plasma total cholesterol change compared to vehicle control ([5]; 0.9 mg/kg once per day) | plasma triglycerides change compared to vehicle control ([5]; 0.9 mg/kg once per day) | plasma HDL-C change compared to vehicle control ([5]; 1.8 mg/kg once per day) | plasma nonHDL-C change compared to vehicle control ([5]; 1.8 mg/kg once per day) | plasma total cholesterol change compared to vehicle control ([5]; 1.8 mg/kg once per day) | plasma triglycerides change compared to vehicle control ([5]; 1.8 mg/kg once per day) | plasma HDL-C change compared to vehicle control ([5]; 3.6 mg/kg once per day) | plasma nonHDL-C change compared to vehicle control ([5]; 3.6 mg/kg once per day) | plasma total cholesterol change compared to vehicle control ([5]; 3.6 mg/kg once per day) | plasma triglycerides change compared to vehicle control ([5]; 3.6 mg/kg once per day) |
| --- | --- | --- | --- | --- | --- | --- | --- | --- | --- | --- | --- | --- | --- | --- | --- | --- | --- | --- | --- | --- |
| C[C@]12C=CC(=O)C=C1CC[C@@H]1[C@@H]2[C@@H](O)C[C@@]2(C)[C@H]1CC[C@]2(O)C(=O)CO [Prednisolone, prednisolone, reference compound] | significantly lower number of arthritic paws | significant reduction | significantly reduced the arthritis score | not significantly different | minor decrease | significant reduction |  |  |  |  |  |  |  |  |  |  |  |  |  |  |
| COc1cccc2c1[n+]([O-])c1cccc(O)c1[n+]2[O-] [compound of Formula III] | did not significantly influence the number of involved paws | did not exert a statistically significant effect |  | not significantly different | maintenance of titers equivalent to the levels at onset | significant reduction | marked effect; also recorded: significant reduction | significant reduction | −2% | −36% | −27% | −37% | 7% | −24% | −17% | −14% | −4% | −26% | −21% | −20% |
| Enbrel | significantly lower number of arthritic paws |  |  |  |  |  | significantly reduced the arthritis score; also recorded: significant reduction |  |  |  |  |  |  |  |  |  |  |  |  |  |
